# pIC50: −log10 of the molar value.
# Legend:
# DNMT-1 = DNMT-1 (Homo sapiens, UniProt P26358); assay: In vitro activity test on DNMT-1; format: biochemical; conditions: for pIC50: in vitro activity on DNMT1, Table 1; for In vitro activity (IC50) compared to ZINC15602870: comparison in words
# Experimental: AutoDock Vina was used to screen the 72,000 compounds using the ligands in the original protein as the docking template. […] Continuous fine screening was performed with AutoDock Vina to obtain the top 50 compounds which were then analyzed by cluster analysis. Next, the representative compounds with large structural differences were empirically selected. Finally, a total of 12 representative compounds were selected (see supporting document), purchased from Medrige or synthesized by ourselves.
# The side chains of compounds 03 and 07 were then introduced onto position R2 of the new parent ring (Table 1). In vitro activity tests were then performed as previously described ([Datta et al., 2009]).
# Notch pathway = assay: Expression of Notch pathway-related factors (qPCR) and methylation of the miR-27-3p promoter (BSP-NGS) after iDNMT treatment; format: cell-based, human
# Experimental: The genomic DNA samples from the clinical specimens, tumor tissues, and cultured cells were extracted and isolated using the DNeasy Blood & Tissue Kit (Cat No. 69504; QIAGEN, Hilden, Germany) and treated with the EpiTect Bisulfite Kit (Cat No. 59104; QIAGEN) according to the manufacturer’s instructions. Next, the polymerase chain reactions (PCRs) were performed using DNA samples and a high-fidelity polymerase, Platinum II Hot-Start PCR Master Mix (Cat No. 14000012; Thermo Fisher Scientific), to amplify the selected promoter region (chr19: 13836440-13838517, negative chain [-], the selected promoter region of has-pre-miR-27) of miR-27 with CpG islands (chr19: 13,835,599-13,835,325, negative chain [-]). […] Following PCR experiments, the products were directly sequenced by using Ion Torrent PGM, and the methylation rates were calculated as previously described ([Ma et al., 2020]; [Wang et al., 2021b]; [He et al., 2021]).
# For quantitative PCR (qPCR) analysis, the total RNA was extracted from the clinical specimens, LSCC cells, or subcutaneous tumor tissues as described by Ma et al. (2020) before reverse transcription to generate cDNA. The expression of DNMT1, Notch-related factors, and has-pre-miR-27 was examined by real-time quantitative fluorescence PCR (RT-PCR/qPCR) ([Ma et al., 2016]; [Yang et al., 2020]; [Du et al., 2021]) with β-actin as the loading control. […]
# H226 cells = assay: Subcellular fractionation and Western blotting of H226 cells; format: cell-based, human; conditions: immunoblotting
# Experimental: The H226 cells were cultured in Dulbecco’s modified Eagle’s medium (DMEM) with 10% (v/v) fetal bovine serum (FBS). The cells were transfected with plasmids or treated with the appropriate concentration of iDNMT [low dose (0.1 μmol/L), medium dose (1 μmol/L), and high dose (10 μmol/L)]. The H226 cells were then harvested for subcellular fractionation assays as previously described. The H226 cells were split into the nuclear subfraction or the cytoplasmic subfraction ([Lu et al., 2013]; [Yang et al., 2013]; [Feng et al., 2018b]). NICD, PSEN-1, and DNMT1 expression levels were examined in the subfractions by immunoblotting using antibodies from Santa Cruz (United States) or Abcam (United Kingdom). We chose β-actin and lamin A as the cytoplasmic and nuclear loading controls or indicators, respectively ([Lu et al., 2013]; [Yang et al., 2013]; [Feng et al., 2018b]).
# To further confirm the specificity of iDNMT on the Notch pathway, we analyzed the cytoplasm–nuclear subfraction using immunoblotting. […] The methylation rates of the miR-27-3p′s promoter region and expression level of DNMT-1 or miR-27-3p in cell samples of Figure 5B are shown in Supplementary Figure S1. Therefore, iDNMT represses PSEN-1 expression to inhibit cleavage of Notch, thus inhibiting NICD accumulation in H226 cells.
# H226 LSCC cells = assay: Subcutaneous H226 LSCC tumors in nude mice, oral iDNMT with or without RFA; format: in vivo
# Experimental: The antitumor efficacy of iDNMT, RFA, and iDNMT1 + RFA on LSCC tissues was examined in nude mice. Nude mice aged 5 weeks were obtained from the Si-Bei-Fu Corporation (Beijing, China), and they were fed under specific pathogen-free conditions. The H226 cells (approximately 5 × 10^6 cells/animal), which were transfected with plasmids, were subcutaneously injected into nude mice to generate tumor tissues ([Feng et al., 2019]; [Sun et al., 2019]). The dimensions of these tumors were measured using a Vernier caliper every 7 days. Tumor volumes were calculated according to the following formula: tumoral width × tumoral width × tumoral length/2 ([Feng et al., 2019]; [Sun et al., 2019]). For RFA treatment or RFA + iDNMT treatment, RFA of the LSCC subcutaneous tumors was performed using a thyroid-ablation needle (Cat No.: UniBlate 700-103587 17G, RITA Company, Crystal Lake, IL, United States) when the tumoral volume reached ∼500 mm^3. The conditions for RFA were as follows: 2 min RFA-duration with a series of different temperatures, 65, 60, or 55°C. In addition, iDNMT was administered orally at 10, 5, 2, or 1 mg/kg ([Xie et al., 2018a]; [Xie et al., 2018b]; [Zhou et al., 2021]). The formulation of iDNMT and the oral administration were performed as previously described ([Zou et al., 2021a]; [Zou et al., 2021b]; [Wang et al., 2021c]; [Jie et al., 2021]). Subcutaneous tumors were separated from the animals, and the weights of these tumors were measured using a precision-balance.
# DNMT-1, sequence (P26358 whole entry): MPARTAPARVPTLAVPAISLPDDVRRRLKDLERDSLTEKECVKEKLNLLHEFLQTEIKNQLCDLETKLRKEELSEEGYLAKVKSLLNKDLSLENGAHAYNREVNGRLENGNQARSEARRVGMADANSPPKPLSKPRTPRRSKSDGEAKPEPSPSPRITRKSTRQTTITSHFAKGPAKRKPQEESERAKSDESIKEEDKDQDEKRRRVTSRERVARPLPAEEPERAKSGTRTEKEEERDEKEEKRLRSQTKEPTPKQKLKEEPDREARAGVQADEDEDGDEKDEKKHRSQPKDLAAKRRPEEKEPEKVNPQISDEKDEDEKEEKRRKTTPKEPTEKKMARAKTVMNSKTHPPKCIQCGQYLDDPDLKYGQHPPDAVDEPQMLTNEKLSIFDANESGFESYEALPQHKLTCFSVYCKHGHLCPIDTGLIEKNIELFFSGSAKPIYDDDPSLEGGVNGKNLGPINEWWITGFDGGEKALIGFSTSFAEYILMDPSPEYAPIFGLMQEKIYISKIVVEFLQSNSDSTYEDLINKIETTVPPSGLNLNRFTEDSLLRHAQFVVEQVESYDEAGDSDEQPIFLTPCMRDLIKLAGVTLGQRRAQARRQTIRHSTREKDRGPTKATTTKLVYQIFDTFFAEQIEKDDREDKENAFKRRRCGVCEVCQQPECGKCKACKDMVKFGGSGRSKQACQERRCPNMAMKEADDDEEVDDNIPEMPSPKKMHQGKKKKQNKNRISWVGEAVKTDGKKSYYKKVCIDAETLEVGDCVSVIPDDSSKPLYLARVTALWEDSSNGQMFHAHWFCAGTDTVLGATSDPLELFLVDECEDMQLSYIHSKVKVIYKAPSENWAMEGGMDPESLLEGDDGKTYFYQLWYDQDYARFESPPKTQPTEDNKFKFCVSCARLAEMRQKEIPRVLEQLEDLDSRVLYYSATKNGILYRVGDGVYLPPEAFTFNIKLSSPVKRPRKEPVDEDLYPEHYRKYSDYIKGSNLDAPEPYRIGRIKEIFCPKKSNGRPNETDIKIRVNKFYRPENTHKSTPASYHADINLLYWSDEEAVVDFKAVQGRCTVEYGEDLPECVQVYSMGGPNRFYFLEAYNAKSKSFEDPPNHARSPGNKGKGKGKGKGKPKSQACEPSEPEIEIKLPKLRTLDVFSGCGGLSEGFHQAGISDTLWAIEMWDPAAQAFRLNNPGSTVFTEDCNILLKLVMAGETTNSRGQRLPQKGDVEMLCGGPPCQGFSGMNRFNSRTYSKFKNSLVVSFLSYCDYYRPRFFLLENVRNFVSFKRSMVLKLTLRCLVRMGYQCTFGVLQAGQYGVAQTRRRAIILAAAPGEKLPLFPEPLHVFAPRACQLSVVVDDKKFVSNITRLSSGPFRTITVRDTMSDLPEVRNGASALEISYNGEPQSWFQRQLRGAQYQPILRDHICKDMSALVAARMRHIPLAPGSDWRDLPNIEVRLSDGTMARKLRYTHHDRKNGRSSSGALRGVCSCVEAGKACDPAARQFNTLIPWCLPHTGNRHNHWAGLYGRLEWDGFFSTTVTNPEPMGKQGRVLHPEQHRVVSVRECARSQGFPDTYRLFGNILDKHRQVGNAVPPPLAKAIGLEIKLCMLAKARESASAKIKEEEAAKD
smiles,measurement,setting,value
"COc1cc(C(=O)Nc2ccc(C(C)=O)cc2)ccc1C [Compound 01, N-(4-acetylphenyl)-3-methoxy-4-methylbenzamide]",pIC50,DNMT-1,4.70
COC(=O)CCSc1n[nH]c(NC(=O)c2ccc(C)c(OC)c2)n1 [Compound 05],pIC50,DNMT-1,4.74
COc1cc(C(=O)Nc2ccc(C(=O)N3CCN(C(C)=O)CC3)cc2)ccc1C [Compound 03],In vitro activity (IC50) compared to ZINC15602870,DNMT-1,improved IC50 values
same,pIC50,DNMT-1,5.15
COc1ccc(C(=O)Nc2ccc(C(=O)N3CCN(C(C)=O)CC3)cc2)cc1OC [Compound 10],pIC50,DNMT-1,5.33
same,methylation of the miR-27-3p promoter region,Notch pathway; Figure 5A,decreased methylation of the miR-27-3p promoter region
same,expression of PSEN-1 or downstream factors of the Notch pathway,"Notch pathway; N-cadherin, vimentin, survivin, cIAP-1, cIAP-2, Figure 5A",inhibit the expression of PSEN-1 or downstream factors of the Notch pathway
same,DNMT-1 expression,H226 cells; Figure 5B,no effects on DNMT-1 expression
same,PSEN-1 expression,H226 cells; Figure 5B,inhibited PSEN-1 expression
same,accumulation of NICD in the nuclear subfraction,"H226 cells; iDNMT low 0.1, medium 1, high 10 μmol/L, dose-dependent",reduced accumulation of NICD in the nuclear subfraction
same,LSCC tumor volumes,H226 LSCC cells; 2 mg/kg iDNMT oral combined with 2 min RFA at 55°C,significantly induced shrinkage of LSCC tumor volumes
same,EMT process of LSCC cells in subcutaneous tissues,H226 LSCC cells; iDNMT with RFA 55°C for 2 min,inhibited the EMT process
same,miR-27-3p expression in tumor tissues,"H226 LSCC cells; oral, 2 mg/kg, leads to inhibition of the Notch pathway",significantly upregulated miR-27-3p expression
same,subcutaneous growth of H226 cells (antitumor activity),"H226 LSCC cells; oral, iDNMT alone, 2 mg/kg",weak antitumor activity
same,subcutaneous growth of H226 cells,"H226 LSCC cells; oral, iDNMT alone, 5 mg/kg",most significant inhibition
same,subcutaneous growth of H226 cells,"H226 LSCC cells; oral, iDNMT alone, 10 mg/kg",most significant inhibition
COc1cc(C(=O)Nc2ccc(C(=O)N3CCN(C(C)C)CC3)cc2)ccc1C [Compound 02],In vitro activity (IC50) compared to ZINC15602870,DNMT-1,improved IC50 values
same,pIC50,DNMT-1,4.82
COc1cc(C(=O)Nc2ccc(S(=O)(=O)NC(=O)c3ccccc3)cc2)ccc1C [Compound 04],In vitro activity (IC50) compared to ZINC15602870,DNMT-1,improved IC50 values
same,pIC50,DNMT-1,4.89
CCC(Sc1n[nH]c(NC(=O)c2ccc(OC)c(OC)c2)n1)C(=O)OC (stereo not shown) [Compound 11],pIC50,DNMT-1,5.22
CCOC(=O)CCCSc1n[nH]c(NC(=O)c2ccc(C)c(OC)c2)n1 [Compound 09],pIC50,DNMT-1,4.66
COCCCSc1n[nH]c(NC(=O)c2ccc(C)c(OC)c2)n1 [Compound 06],pIC50,DNMT-1,4.42
CCC(Sc1n[nH]c(NC(=O)c2ccc(C)c(OC)c2)n1)C(=O)OC (stereo not shown) [Compound 07],pIC50,DNMT-1,5.05
COc1cc(C(=O)Nc2nc(SCC3OCCO3)n[nH]2)ccc1C [Compound 08],pIC50,DNMT-1,4.52

# Source: publication PMC8983860, “A Novel Small Molecular Inhibitor of DNMT1 Enhances the Antitumor Effect of Radiofrequency Ablation in Lung Squamous Cell Carcinoma Cells” (Frontiers in Pharmacology, 2022)
